Experimental data reported in ChEMBL document CHEMBL4346703, “Structure Overhaul Affords a Potent Purine PI3Kδ Inhibitor with Improved Tolerability” (J Med Chem, 2019).

Columns and labels:
[1] = Plasma clearance in Beagle dog at 0.25 mg/kg, iv or 0.5 mg/kg, po; assay type: ADME, organism-based, Canis lupus familiaris
[2] = molecular target: PI3-kinase p110-alpha/p85-alpha (Homo sapiens, UniProt P42336); test: Inhibition of N-terminal His6-tagged recombinant full length human p110alpha/untagged recombinant full length human p85alpha expressed in baculovirus infected Sf21 insect cells using PIP2 as substrate preincubated for 15 mins followed by substrate addition and measured after 1 hr by HTRF assay
[3] = molecular target: PI3-kinase p110-delta/p85-alpha (Homo sapiens, UniProt O00329); test: Inhibition of N-terminal His6-tagged recombinant full length human p110delta/untagged recombinant full length human p85alpha expressed in baculovirus infected Sf21 insect cells using PIP2 as substrate preincubated for 15 mins followed by substrate addition and measured after 1 hr by HTRF assay
[4] = molecular target: T1, Phosphatidylinositol 4,5-bisphosphate 3-kinase catalytic subunit delta isoform (Homo sapiens, UniProt O00329); test: Inhibition of PI3Kdelta in human Ramos cells assessed as reduction in anti-IgM-antibody-induced phosphorylation of AKT at Ser473 residue preincubated for 20 mins followed by anti-IgM antibody stimulation and measured after 30 mins by alphascreen assay; assay type: cell-based
T1 sequence (O00329 whole entry): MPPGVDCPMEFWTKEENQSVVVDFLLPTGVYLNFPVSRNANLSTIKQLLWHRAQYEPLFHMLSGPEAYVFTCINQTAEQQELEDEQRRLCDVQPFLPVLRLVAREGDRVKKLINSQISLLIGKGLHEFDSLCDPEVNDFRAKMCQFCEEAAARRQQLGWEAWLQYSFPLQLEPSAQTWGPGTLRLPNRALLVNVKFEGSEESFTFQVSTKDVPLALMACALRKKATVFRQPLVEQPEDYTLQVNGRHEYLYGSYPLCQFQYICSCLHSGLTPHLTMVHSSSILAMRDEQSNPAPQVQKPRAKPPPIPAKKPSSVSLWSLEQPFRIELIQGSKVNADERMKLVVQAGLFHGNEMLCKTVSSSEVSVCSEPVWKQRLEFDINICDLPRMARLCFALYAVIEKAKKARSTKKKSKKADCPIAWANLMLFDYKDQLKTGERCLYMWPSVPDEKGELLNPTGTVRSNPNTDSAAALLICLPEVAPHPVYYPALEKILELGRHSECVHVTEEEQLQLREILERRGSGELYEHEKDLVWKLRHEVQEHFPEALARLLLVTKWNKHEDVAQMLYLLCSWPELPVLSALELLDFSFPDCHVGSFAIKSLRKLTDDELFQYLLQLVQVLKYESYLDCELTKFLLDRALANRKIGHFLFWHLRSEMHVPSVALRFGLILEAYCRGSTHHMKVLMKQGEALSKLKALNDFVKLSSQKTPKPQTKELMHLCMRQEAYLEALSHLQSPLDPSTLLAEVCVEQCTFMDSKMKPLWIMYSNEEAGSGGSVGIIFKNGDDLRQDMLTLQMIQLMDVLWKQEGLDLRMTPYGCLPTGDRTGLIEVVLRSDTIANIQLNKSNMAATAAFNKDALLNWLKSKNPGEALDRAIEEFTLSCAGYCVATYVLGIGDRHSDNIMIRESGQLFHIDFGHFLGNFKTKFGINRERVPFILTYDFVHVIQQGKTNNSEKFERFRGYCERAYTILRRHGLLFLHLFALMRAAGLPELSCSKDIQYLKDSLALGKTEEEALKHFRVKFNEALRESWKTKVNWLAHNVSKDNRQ

[5] = Inhibition of adenosine transporter in human HeLa cells assessed as reduction in [3H]adenosine uptake preincubated for 30 mins followed by [3H]adenosine addition and measured after 60 mins; assay type: ADME, cell-based
[6] = molecular target: T1, Phosphatidylinositol 4,5-bisphosphate 3-kinase catalytic subunit delta isoform; test: Inhibition of PI3Kdelta in human whole blood assessed as reduction in antihuman IgE antibody-stimulated CD63 expression preincubated for 30 mins followed by antihuman IgE antibody stimulation and measured after 20 mins by FACS analysis; assay type: tissue-based
[7] = molecular target: cGMP-dependent 3',5'-cyclic phosphodiesterase (Homo sapiens, UniProt O00408); test: Inhibition of PDE2 (unknown origin)
[8] = molecular target: Phosphodiesterase 3 (Homo sapiens, UniProt Q14432+Q13370); test: Inhibition of PDE3 (unknown origin); assay type: protein assay
[9] = molecular target: Phosphodiesterase 4 (Homo sapiens, UniProt P27815+Q08499+Q07343+Q08493); test: Inhibition of PDE4 (unknown origin); assay type: protein assay
[10] = molecular target: Phosphodiesterase 6; test: Inhibition of PDE6 (unknown origin); assay type: protein assay, Homo sapiens
[11] = molecular target: Phosphodiesterase 7 (Homo sapiens, UniProt Q13946+Q9NP56); test: Inhibition of PDE7 (unknown origin); assay type: protein assay
[12] = molecular target: High affinity cGMP-specific 3',5'-cyclic phosphodiesterase 9A (Homo sapiens, UniProt O76083); test: Inhibition of PDE9 (unknown origin)
[13] = molecular target: cAMP and cAMP-inhibited cGMP 3',5'-cyclic phosphodiesterase 10A (Homo sapiens, UniProt Q9Y233); test: Inhibition of PDE10 (unknown origin)
[14] = Plasma clearance in Wistar Han rat at 0.5 mg/kg, iv or 1 mg/kg, po; assay type: ADME, organism-based
[15] = Unbound volume of distribution in Wistar Han rat; assay type: ADME; conditions: in vivo
[16] = Half-life in Wistar Han rat; assay type: ADME; conditions: in vivo
[17] = Oral bioavailability in Wistar Han rat; assay type: ADME, organism-based; conditions: in vivo
[18] = Volume of distribution in Beagle dog; assay type: ADME, Canis lupus familiaris; conditions: in vivo
[19] = Unbound volume of distribution in Beagle dog; assay type: ADME, Canis lupus familiaris; conditions: in vivo
[20] = Half-life in Beagle dog; assay type: ADME, Canis lupus familiaris; conditions: in vivo
[21] = Oral bioavailability in Beagle dog; assay type: ADME, organism-based, Canis lupus familiaris; conditions: in vivo
[22] = fAUC in rat at 750 mg/kg administered for 4 days; assay type: ADME, organism-based; conditions: in vivo, 96 h
[23] = fAUC in Beagle dog at 25 mg/kg administered for 8 days; assay type: ADME, organism-based, Canis lupus familiaris; conditions: in vivo, 192 h
[24] = fCmax in Beagle dog at 25 mg/kg administered for 8 days; assay type: ADME, organism-based, Canis lupus familiaris; conditions: in vivo, 192 h
[25] = Toxicity in Beagle dog assessed as decrease in basophil count at 25 mg/kg administered for 8 days; assay type: organism-based, Canis lupus familiaris; conditions: in vivo, 192 h
[26] = Cardiovascular toxicity in rat assessed as vascular injury at 750 mg/kg for 4 days; assay type: organism-based; conditions: in vivo, 96 h
[27] = Toxicity in Beagle dog assessed as decrease in RBC count at 25 mg/kg administered for 8 days; assay type: organism-based, Canis lupus familiaris; conditions: in vivo, 192 h
[28] = Lipophilicity, log D of the compound; assay type: physicochemical; conditions: octanol/water
[29] = Drug recovery in rat urine after 24 hrs; assay type: ADME; conditions: read-out: Drug recovery
[30] = Drug recovery in rat bile after 24 hrs; assay type: ADME; conditions: read-out: Drug recovery
[31] = species: Homo sapiens; test: (§1) Selectivity ratio of IC50 for N-terminal His6-tagged recombinant full length human p110alpha/untagged recombinant full length human p85alpha expressed in baculovirus infected Sf21 insect cells to IC50 for N-terminal His6-tagged recombinant full length human p110delta/untagged recombinant full length human p85alpha expressed in baculovirus infected Sf21 insect cells
[32] = species: Homo sapiens; test: as §1, with “p110beta/untagged” for “p110alpha/untagged”, “to” for “to IC50 for”
[33] = species: Homo sapiens; test: Selectivity ratio of IC50 for N-terminal His6-tagged recombinant full length human PI3Kgamma expressed in baculovirus infected Sf21 cells to IC50 for N-terminal His6-tagged recombinant full length human p110delta/untagged recombinant full length human p85alpha expressed in baculovirus infected Sf21 insect cells
[34] = Intrinsic clearance in rat hepatocytes; assay type: ADME, cell-based, Hepatocyte; conditions: read-out: CLH

Chain of PI3-kinase p110-delta/p85-alpha (P27986 whole entry, one chain of several, canonical isoform): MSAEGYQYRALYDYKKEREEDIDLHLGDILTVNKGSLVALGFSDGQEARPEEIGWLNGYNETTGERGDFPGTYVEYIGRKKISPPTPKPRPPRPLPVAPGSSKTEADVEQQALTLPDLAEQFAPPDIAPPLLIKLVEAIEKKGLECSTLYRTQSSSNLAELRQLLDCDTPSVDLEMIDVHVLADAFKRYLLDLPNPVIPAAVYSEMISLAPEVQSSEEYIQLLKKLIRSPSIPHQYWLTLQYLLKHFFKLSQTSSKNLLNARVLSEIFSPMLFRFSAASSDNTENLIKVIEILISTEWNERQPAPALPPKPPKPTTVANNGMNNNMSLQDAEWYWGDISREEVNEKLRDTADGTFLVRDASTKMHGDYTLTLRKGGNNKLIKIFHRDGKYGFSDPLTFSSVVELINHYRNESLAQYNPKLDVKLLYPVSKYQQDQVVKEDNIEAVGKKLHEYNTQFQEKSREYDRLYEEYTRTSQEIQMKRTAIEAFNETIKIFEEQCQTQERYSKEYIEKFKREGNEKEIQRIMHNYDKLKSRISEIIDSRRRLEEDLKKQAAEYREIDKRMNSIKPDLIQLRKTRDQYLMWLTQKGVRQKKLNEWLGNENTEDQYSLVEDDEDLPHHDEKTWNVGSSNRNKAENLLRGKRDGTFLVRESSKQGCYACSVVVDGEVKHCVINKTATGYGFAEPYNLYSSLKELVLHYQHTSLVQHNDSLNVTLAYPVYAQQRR
Chain of PI3-kinase p110-alpha/p85-alpha (P27986 whole entry): as the sequence (P27986 whole entry, one chain of several, canonical isoform) above
Chain of PI3-kinase p110-alpha/p85-alpha (P42336 whole entry): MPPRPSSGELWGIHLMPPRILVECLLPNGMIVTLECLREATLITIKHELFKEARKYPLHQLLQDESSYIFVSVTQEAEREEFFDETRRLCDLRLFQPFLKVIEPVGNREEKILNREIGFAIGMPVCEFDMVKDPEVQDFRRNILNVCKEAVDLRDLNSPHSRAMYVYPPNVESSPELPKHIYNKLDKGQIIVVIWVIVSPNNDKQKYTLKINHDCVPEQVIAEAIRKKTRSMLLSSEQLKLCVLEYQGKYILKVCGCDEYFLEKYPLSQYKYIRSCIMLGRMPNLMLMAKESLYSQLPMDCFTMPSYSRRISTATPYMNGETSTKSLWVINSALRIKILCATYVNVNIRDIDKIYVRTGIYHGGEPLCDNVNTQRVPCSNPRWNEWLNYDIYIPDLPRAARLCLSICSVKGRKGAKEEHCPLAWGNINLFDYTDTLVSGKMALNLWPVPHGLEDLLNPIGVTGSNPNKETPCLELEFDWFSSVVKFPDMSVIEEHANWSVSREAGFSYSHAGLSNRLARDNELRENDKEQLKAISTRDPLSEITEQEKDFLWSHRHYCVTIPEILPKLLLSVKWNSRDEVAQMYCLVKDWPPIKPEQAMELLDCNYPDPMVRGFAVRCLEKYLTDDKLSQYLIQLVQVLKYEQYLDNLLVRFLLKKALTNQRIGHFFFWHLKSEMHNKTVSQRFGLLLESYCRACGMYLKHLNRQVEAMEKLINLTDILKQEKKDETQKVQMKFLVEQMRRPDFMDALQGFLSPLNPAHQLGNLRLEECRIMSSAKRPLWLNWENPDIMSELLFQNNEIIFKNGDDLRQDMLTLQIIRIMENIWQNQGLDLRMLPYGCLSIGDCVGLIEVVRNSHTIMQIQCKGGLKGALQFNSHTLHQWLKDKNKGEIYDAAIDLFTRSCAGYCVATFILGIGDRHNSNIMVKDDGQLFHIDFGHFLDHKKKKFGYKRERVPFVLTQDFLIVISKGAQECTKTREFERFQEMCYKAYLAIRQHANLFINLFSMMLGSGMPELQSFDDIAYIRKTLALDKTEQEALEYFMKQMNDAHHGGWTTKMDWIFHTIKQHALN
Chain of High affinity cGMP-specific 3',5'-cyclic phosphodiesterase 9A (O76083 whole entry): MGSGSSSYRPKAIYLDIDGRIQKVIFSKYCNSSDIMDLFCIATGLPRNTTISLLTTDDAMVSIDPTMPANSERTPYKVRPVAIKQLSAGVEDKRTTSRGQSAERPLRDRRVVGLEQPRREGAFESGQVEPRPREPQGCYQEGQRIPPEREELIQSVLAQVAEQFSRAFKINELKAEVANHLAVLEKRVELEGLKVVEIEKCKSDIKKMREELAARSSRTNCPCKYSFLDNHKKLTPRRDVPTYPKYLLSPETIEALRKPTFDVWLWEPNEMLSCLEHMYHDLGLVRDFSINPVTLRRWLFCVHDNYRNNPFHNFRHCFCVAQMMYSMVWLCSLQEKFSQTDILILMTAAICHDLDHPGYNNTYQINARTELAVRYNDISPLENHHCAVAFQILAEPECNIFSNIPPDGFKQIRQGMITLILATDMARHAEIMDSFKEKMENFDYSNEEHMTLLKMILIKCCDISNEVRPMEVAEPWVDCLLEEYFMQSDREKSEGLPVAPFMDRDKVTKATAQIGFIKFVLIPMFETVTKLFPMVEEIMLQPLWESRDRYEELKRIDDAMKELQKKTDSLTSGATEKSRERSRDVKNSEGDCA
Chain of cGMP-dependent 3',5'-cyclic phosphodiesterase (O00408 whole entry): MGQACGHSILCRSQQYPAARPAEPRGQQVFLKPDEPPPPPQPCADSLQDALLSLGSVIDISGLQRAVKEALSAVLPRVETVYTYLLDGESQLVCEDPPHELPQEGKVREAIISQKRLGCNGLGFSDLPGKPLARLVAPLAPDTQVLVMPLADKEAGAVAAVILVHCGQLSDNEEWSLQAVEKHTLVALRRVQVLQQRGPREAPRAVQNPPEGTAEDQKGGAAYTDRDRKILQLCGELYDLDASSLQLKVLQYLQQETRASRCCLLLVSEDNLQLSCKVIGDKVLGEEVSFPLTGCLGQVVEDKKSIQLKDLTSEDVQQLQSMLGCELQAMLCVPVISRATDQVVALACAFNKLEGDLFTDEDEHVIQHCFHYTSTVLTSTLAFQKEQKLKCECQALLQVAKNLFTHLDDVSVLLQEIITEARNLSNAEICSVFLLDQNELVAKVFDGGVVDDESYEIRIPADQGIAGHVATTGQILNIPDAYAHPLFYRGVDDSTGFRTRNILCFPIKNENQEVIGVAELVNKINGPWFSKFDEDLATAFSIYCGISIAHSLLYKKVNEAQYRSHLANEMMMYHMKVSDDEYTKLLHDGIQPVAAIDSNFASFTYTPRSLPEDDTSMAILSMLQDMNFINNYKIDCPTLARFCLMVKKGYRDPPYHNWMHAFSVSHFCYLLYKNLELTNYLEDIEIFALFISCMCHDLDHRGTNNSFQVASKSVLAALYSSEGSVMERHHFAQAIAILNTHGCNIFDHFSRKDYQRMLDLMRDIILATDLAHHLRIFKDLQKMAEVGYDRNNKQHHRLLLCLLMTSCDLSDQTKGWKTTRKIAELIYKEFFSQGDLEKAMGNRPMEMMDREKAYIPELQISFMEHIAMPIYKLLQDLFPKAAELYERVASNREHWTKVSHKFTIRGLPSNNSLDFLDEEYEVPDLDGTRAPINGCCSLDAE
Chain of cAMP and cAMP-inhibited cGMP 3',5'-cyclic phosphodiesterase 10A (Q9Y233 whole entry): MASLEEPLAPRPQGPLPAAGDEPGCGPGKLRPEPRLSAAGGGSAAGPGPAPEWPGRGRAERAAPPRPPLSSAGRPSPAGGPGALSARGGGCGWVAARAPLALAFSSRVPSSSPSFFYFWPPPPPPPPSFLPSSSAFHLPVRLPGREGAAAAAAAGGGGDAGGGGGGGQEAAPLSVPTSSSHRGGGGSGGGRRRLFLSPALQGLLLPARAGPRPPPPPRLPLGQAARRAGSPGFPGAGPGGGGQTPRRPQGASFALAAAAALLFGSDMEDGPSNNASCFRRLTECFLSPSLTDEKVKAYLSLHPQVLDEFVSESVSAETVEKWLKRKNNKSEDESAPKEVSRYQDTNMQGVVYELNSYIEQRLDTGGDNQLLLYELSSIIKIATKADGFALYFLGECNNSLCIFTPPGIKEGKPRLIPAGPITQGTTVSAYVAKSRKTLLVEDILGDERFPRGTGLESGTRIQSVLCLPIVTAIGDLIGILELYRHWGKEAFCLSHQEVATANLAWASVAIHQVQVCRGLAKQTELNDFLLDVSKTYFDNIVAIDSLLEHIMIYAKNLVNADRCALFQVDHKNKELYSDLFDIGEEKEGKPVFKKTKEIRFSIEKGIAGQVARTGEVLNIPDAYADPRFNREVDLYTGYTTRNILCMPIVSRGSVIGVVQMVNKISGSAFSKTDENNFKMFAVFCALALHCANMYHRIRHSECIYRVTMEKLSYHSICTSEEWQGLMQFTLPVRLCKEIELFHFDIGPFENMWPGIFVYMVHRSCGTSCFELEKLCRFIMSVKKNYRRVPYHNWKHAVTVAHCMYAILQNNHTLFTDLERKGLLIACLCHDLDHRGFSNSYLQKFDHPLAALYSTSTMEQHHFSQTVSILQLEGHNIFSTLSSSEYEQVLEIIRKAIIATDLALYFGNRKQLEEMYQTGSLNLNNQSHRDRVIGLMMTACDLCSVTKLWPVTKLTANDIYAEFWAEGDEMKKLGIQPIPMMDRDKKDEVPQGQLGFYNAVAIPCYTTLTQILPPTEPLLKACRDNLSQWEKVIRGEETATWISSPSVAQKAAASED

With `CCn1ncc(-c2nc3c(O[C@H]4CCN(C(=O)C5CCOCC5)C4)ncnc3n2C)c1C` the clearance [1] was 5.8 mL/min/kg, the IC50 [2] was 0.27 µM and the IC50 [3] was 0.0039 µM. The IC50 [4] was 0.062 µM, the IC50 [5] was > 10 µM and the IC50 [6] was 0.415 µM. The IC50 [7] was > 50 µM, the IC50 [8] was > 50 µM and the IC50 [9] was > 50 µM. The IC50 [10] was > 50 µM, the IC50 [11] was > 50 µM and the IC50 [12] was > 50 µM. For the same compound, the IC50 [13] was > 50 µM, the clearance [14] was 41 mL/min/kg and the Vdu [15] was 2 L/kg. It also gave a half-life [16] of 0.8 h, a bioavailability [17] of 55% and a Vd [18] of 0.9 L/kg. For the same compound, the Vdu [19] was 3 L/kg, the half-life [20] was 1.5 h and the bioavailability [21] was 100%. The fAUC [22] was 990 µM·h, the fAUC [23] was 222 µM·h and the fCmax [24] was 46 µM. For the same compound, the Activity [25] was “Non-Toxic”, the Activity [26] was “Non-Toxic” and the Activity [27] was “Non-Toxic”. For the same compound, the logD [28] was 1.1, the dose excreted at 24 h [29] was 17% and the dose excreted at 24 h [30] was 2%. It also gave a Ratio IC50 [31] of 69, a Ratio IC50 [32] of 1400 and a Ratio IC50 [33] of 970. The CLint scaled [34] was < 40 mL/min/kg.
